From the supplement of paper PMC11451515

Test system: P12-Ichikawa
Assay: cell viability relative to DMSO control; higher = less cytotoxic
Conditions: 48 h
Method in brief: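 NOMO1 or SEM cells were plated at 500 cells/well and P12-Ichikawa cells at 1000 cells/well in 1536-well plates (5 μl), after each leukemia line had been adapted for at least four passages in each medium. Pin dosing delivered library compounds in DMSO at 11 threefold concentrations, 47 μM to 0.79 nM. CellTiter-Glo One luminescence was read after 48 h at 37°C. Viability is reported as a per-plate percentage of DMSO wells, with cell-free wells as background.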

[1] = HPLM + 10% dialyzed FBS, 0.000781 µM
[2] = HPLM + 10% dialyzed FBS, 0.00234 µM
[3] = HPLM + 10% dialyzed FBS, 0.00702 µM
[4] = HPLM + 10% dialyzed FBS, 0.0211 µM
[5] = HPLM + 10% dialyzed FBS, 0.0632 µM
[6] = HPLM + 10% dialyzed FBS, 0.19 µM
[7] = HPLM + 10% dialyzed FBS, 0.569 µM
[8] = HPLM + 10% dialyzed FBS, 1.71 µM
[9] = HPLM + 10% dialyzed FBS, 5.12 µM
[10] = HPLM + 10% dialyzed FBS, 15.4 µM
[11] = HPLM + 10% dialyzed FBS, 46.1 µM
[12] = RPMI 5 mM glucose + 10% FBS, 0.000781 µM
[13] = RPMI 5 mM glucose + 10% FBS, 0.00234 µM
[14] = RPMI 5 mM glucose + 10% FBS, 0.00702 µM
[15] = RPMI 5 mM glucose + 10% FBS, 0.0211 µM
[16] = RPMI 5 mM glucose + 10% FBS, 0.0632 µM
[17] = RPMI 5 mM glucose + 10% FBS, 0.19 µM
[18] = RPMI 5 mM glucose + 10% FBS, 0.569 µM
[19] = RPMI 5 mM glucose + 10% FBS, 1.71 µM
[20] = RPMI 5 mM glucose + 10% FBS, 5.12 µM
[21] = RPMI 5 mM glucose + 10% FBS, 15.4 µM
[22] = RPMI 5 mM glucose + 10% FBS, 46.1 µM
[23] = RPMI 5 mM glucose + 10% dialyzed FBS, 0.000781 µM
[24] = RPMI 5 mM glucose + 10% dialyzed FBS, 0.00234 µM
[25] = RPMI 5 mM glucose + 10% dialyzed FBS, 0.00702 µM
[26] = RPMI 5 mM glucose + 10% dialyzed FBS, 0.0211 µM
[27] = RPMI 5 mM glucose + 10% dialyzed FBS, 0.0632 µM
[28] = RPMI 5 mM glucose + 10% dialyzed FBS, 0.19 µM
[29] = RPMI 5 mM glucose + 10% dialyzed FBS, 0.569 µM
[30] = RPMI 5 mM glucose + 10% dialyzed FBS, 1.71 µM
[31] = RPMI 5 mM glucose + 10% dialyzed FBS, 5.12 µM
[32] = RPMI 5 mM glucose + 10% dialyzed FBS, 15.4 µM
[33] = RPMI 5 mM glucose + 10% dialyzed FBS, 46.1 µM

SMILES	cell viability [1]	cell viability [2]	cell viability [3]	cell viability [4]	cell viability [5]	cell viability [6]	cell viability [7]	cell viability [8]	cell viability [9]	cell viability [10]	cell viability [11]	cell viability [12]	cell viability [13]	cell viability [14]	cell viability [15]	cell viability [16]	cell viability [17]	cell viability [18]	cell viability [19]	cell viability [20]	cell viability [21]	cell viability [22]	cell viability [23]	cell viability [24]	cell viability [25]	cell viability [26]	cell viability [27]	cell viability [28]	cell viability [29]	cell viability [30]	cell viability [31]	cell viability [32]	cell viability [33]
CCC[C@@H](C=O)NC(=O)[C@H](CC(C)C)NC(=O)[C@H](CC(C)C)NC(=O)OCc1ccccc1	107%	108%	120%	120%	117%	118%	132%	118%	12.1%	6.77%	5.18%	105%	116%	113%	118%	122%	121%	121%	104%	7.61%	6.3%	4.83%	104%	115%	120%	124%	124%	130%	133%	133%	14.7%	7.12%	5.01%
CC[C@H](NC(C)C)[C@H](O)c1ccc(O)c2[nH]c(=O)ccc12	108%	111%	102%	106%	99%	102%	101%	105%	102%	92.1%	97.8%	102%	106%	104%	101%	96.9%	107%	108%	94.3%	95.2%	94.1%	92.6%	91.4%	98.2%	97.6%	95%	100%	97.1%	98.2%	89.9%	93.5%	95.1%	93.8%
CCc1ccc(C(=O)Nc2cc(CN3CCN(C)CC3)cc(C(F)(F)F)c2)cc1C#Cc1cnc2ccnn2c1	126%	118%	114%	121%	120%	124%	118%	117%	112%	102%	88.2%	119%	122%	134%	113%	124%	116%	113%	123%	106%	102%	87.3%	130%	118%	121%	113%	111%	119%	107%	108%	104%	99.1%	83.8%
CCCc1nc2c(C)cc(-c3nc4ccccc4n3C)cc2n1Cc1ccc(-c2ccccc2C(=O)O)cc1	123%	124%	122%	125%	126%	135%	130%	127%	123%	133%	123%																						
NC(=O)c1ccc(-c2nc(-c3ccc4c(c3)OCO4)c(-c3ccccn3)[nH]2)cc1	124%	124%	123%	107%	127%	123%	116%	114%	110%	112%	100%	122%	130%	116%	109%	118%	111%	108%	116%	100%	107%	93.8%											
CC1(C)Cc2c(sc(NC(=S)NC(=O)c3ccccc3)c2C(=O)O)CO1	99.1%	109%	107%	110%	109%	115%	118%	114%	101%	99.2%	101%	103%	110%	110%	116%	119%	118%	121%	112%	110%	108%	106%	103%	112%	108%	110%	115%	109%	126%	122%	114%	105%	106%
CN(c1nccc(=O)[nH]1)C1CCN(c2nc3ccccc3n2Cc2ccc(F)cc2)CC1	108%	104%	109%	110%	111%	119%	118%	118%	114%	112%	110%	113%	110%	101%	114%	124%	111%	116%	109%	115%	115%	123%	100%	108%	109%	108%	125%	113%	121%	112%	123%	119%	112%
Cn1c(=O)c2[nH]cnc2n(C)c1=O	104%	113%	116%	114%	111%	110%	116%	109%	114%	106%	104%	112%	113%	115%	117%	109%	115%	124%	106%	112%	108%	105%	115%	111%	113%	107%	111%	116%	107%	108%	111%	99.7%	94.2%
C/C(=C\c1csc(C)n1)[C@@H]1C[C@@H]2O[C@]2(C)CCC[C@H](C)[C@H](O)[C@@H](C)C(=O)C(C)(C)[C@@H](O)CC(=O)O1	33.8%	32.1%	28.8%	58.9%	28.1%	22.6%	23.1%	25.3%	30.8%	17.1%	21.4%	18.2%	19.1%	23.7%	44.1%	24.6%	22.6%	24.3%	22.7%	25.6%	24.2%	27%	44.5%	34.4%	31.2%	58%	37.6%	35.4%	32.6%	32.8%	43.7%	35.5%	38%
